Results as given in ChEMBL document CHEMBL1201862, “PubChem BioAssay data set” (2004).
Active and inactive are the calls of the source.

Key:
[1] = target: T1, Runt-related transcription factor 1/Core-binding factor subunit beta (Homo sapiens, UniProt Q01196+Q13951); experiment: disruptors of Runt domain/CBFb-SMMHC interaction – biochemical, FRET, Cerulean-Runt, Venus-CBFb-SMMHC, uHTS, […] (AID 1434); type: protein assay
[2] = target: T1, Runt-related transcription factor 1/Core-binding factor subunit beta; experiment: Runt domain/CBFb-SMMHC interaction disruptors – biochemical, TR-FRET (AID 1438); type: protein assay
[3] = target: T2, Corticotropin-releasing factor receptor 2/Corticotropin-releasing factor-binding protein (Homo sapiens, UniProt P24387+Q13324); experiment: activators of CRF receptor 2 with binding protein – uHTS hits, confirmation (AID 602473); type: functional; conditions: read-out: EC50_Mean
T2 sequence (Q13324 whole entry): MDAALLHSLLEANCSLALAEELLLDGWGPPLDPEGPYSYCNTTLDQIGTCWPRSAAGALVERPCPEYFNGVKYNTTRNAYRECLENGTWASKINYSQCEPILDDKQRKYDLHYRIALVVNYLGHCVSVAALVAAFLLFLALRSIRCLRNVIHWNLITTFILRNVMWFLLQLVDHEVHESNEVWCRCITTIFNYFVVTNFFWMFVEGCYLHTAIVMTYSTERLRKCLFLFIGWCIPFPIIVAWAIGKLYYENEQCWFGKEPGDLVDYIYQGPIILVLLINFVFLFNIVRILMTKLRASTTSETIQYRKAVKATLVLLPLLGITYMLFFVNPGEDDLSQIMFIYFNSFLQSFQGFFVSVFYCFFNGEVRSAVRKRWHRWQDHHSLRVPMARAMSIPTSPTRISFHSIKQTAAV
T2 sequence (P24387 whole entry): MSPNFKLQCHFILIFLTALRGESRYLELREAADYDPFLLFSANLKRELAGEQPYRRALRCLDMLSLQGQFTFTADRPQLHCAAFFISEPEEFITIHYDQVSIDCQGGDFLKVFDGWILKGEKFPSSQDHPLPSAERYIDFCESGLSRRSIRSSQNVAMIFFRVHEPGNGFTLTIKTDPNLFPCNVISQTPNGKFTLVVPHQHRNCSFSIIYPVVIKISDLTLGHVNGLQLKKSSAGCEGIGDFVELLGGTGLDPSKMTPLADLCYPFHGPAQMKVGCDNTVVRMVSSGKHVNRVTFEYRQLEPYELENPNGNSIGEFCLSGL

[4] = target: SUMO-activating enzyme (Homo sapiens, UniProt Q9UBT2); experiment: blockers of UBC9-mediated SUMO conjugation – biochemical, AlphaScreen, SUMOylation inhibitor project, confirmation (AID 2018); type: functional
[5] = target: T3, Tyrosine-protein phosphatase non-receptor type 7 (Homo sapiens, UniProt P35236); experiment: inhibition of hematopoietic tyrosine phosphatase HePTP – biochemical, set 2, SAR follow-up (AID 449736); type: functional
T3 sequence (P35236 whole entry): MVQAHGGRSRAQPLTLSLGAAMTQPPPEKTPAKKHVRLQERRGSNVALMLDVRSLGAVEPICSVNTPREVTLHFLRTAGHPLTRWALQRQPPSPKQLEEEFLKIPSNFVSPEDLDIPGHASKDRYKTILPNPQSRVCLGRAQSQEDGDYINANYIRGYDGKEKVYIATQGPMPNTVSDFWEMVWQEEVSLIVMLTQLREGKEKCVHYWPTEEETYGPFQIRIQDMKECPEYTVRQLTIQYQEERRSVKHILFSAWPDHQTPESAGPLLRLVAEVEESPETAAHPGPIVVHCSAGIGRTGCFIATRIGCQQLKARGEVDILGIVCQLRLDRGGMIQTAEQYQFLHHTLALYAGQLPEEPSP

[6] = target: T4, Zinc finger protein mex-5 (Caenorhabditis elegans, UniProt Q9XUB2); experiment: potency of MEX-5 RNA-binding blockers – biochemical, C. elegans, fluorescence polarization, dose response (AID 1960)
T4 sequence (Q9XUB2 whole entry): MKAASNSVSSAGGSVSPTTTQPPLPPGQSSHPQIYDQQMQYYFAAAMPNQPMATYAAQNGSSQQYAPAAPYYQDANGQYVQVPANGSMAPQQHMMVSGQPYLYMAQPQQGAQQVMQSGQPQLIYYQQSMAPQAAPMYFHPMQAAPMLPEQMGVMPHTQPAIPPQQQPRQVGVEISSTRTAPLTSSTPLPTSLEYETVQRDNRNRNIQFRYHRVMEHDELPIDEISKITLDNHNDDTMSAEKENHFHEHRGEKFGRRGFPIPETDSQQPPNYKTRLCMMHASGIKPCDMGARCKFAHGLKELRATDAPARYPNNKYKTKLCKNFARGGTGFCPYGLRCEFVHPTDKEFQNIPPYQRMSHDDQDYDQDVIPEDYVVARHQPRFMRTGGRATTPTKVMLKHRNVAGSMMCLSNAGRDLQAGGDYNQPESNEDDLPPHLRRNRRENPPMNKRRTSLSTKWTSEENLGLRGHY

[7] = target: T5, Dual specificity protein phosphatase 3 (Homo sapiens, UniProt P51452); experiment: VHR1 phosphatase inhibitors, biochemical (AID 1878)
[8] = target: T5, Dual specificity protein phosphatase 3; experiment: VHR1 phosphatase inhibitors, primary screen, biochemical, absorbance, uHTS (AID 1654)
[9] = target: T6, RNA-binding protein pos-1 (Caenorhabditis elegans, UniProt G5EF15); experiment: disruptors of C. elegans POS-1 RNA interaction – biochemical, fluorescence polarization, dose response (AID 1964);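 also: purified POS-1 fused to maltose binding protein made in E. coli; potency of compounds blocking POS-1 binding to fluorescent RNA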
T6 sequence (G5EF15 whole entry): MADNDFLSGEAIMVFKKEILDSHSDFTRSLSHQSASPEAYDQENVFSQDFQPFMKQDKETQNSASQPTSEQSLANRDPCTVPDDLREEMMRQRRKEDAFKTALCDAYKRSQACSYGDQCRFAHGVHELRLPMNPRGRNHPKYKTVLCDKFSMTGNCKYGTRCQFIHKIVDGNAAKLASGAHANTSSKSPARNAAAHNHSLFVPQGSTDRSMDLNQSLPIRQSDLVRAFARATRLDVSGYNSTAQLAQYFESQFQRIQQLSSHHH

[10] = target: T7, Dual specificity protein phosphatase 6 (Rattus norvegicus, UniProt Q64346); experiment: inhibition of rat DUSP6 enzyme activity – biochemical, in vitro, primary screen (AID 425)
T7 sequence (Q64346 whole entry): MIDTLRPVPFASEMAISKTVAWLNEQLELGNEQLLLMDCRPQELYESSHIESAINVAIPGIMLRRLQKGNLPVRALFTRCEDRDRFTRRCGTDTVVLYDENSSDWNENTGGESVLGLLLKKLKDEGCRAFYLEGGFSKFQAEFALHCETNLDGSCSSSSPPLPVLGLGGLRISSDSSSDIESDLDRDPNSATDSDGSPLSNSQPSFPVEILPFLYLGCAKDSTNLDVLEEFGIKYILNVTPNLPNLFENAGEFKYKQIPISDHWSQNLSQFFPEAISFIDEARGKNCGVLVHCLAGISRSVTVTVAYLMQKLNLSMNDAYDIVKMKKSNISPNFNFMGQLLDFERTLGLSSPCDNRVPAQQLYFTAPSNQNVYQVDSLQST

[11] = target: T8, Carboxy-terminal domain RNA polymerase II polypeptide A small phosphatase 1 (Homo sapiens, UniProt Q9GZU7); experiment: CTDSP1 inhibitors, concentration-response, biochemical, absorbance readout, ultra-high-throughput screen actives (AID 540297); type: functional
T8 sequence (Q9GZU7 whole entry): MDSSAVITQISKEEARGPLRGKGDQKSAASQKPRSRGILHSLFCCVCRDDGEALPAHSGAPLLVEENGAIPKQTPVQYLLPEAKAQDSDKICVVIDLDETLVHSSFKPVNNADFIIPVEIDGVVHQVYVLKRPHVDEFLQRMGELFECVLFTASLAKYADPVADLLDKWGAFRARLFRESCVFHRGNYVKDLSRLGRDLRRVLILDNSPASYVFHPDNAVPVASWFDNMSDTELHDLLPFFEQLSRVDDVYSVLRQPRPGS

[12] = target: G-protein coupled receptor 55 (Homo sapiens, UniProt Q9Y2T6); experiment: SAR Analysis of Selective Antagonists of GPR55 using an Image-Based Assay - Set 4. [Related pubchem assays (depositor defined):AID2013, AID2026]; type: functional;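 also: antagonism of response to 5 µM lysophosphatidylinositol agonist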
[13] = target: T9, Cannabinoid receptor 1 (Homo sapiens, UniProt P21554); experiment: SAR analysis of agonists of the Cannabinoid Receptor 1 using an Image-Based Assay - Set 4. [Related pubchem assays (depositor defined):AID2013, AID2026]; type: functional
[14] = target: T9, Cannabinoid receptor 1; experiment: SAR analysis of antagonists of the Cannabinoid Receptor 1 using an Image-Based Assay - Set 4. [Related pubchem assays (depositor defined):AID2013, AID2026]; type: functional
[15] = target: T10, G-protein coupled receptor 35 (Homo sapiens, UniProt Q9HC97); experiment: SAR analysis of Antagonists of the GPR35 Receptor using an Image-Based Assay - Set 6. [Related pubchem assays (depositor defined):AID2013, AID2026]; type: functional
[16] = target: T11, Cannabinoid receptor 2 (Homo sapiens, UniProt P34972); experiment: SAR analysis of antagonists of the Cannabinoid Receptor 2 using an Image-Based Assay - Set 3. [Related pubchem assays (depositor defined):AID2013, AID2026]; type: functional
[17] = target: T10, G-protein coupled receptor 35; experiment: SAR analysis of Agonists of the GPR35 Receptor using an Image-Based Assay - Set 4. [Related pubchem assays (depositor defined):AID2013, AID2026]; type: functional
[18] = target: T11, Cannabinoid receptor 2; experiment: SAR analysis of agonists of the Cannabinoid Receptor 2 using an Image-Based Assay - Set 3. [Related pubchem assays (depositor defined):AID2013, AID2026]; type: functional
[19] = toxicity toward cultured mammalian cells – cell-based, plate reader, cherry-pick samples, cytotoxicity control, dose response (AID 504397); type: functional
[20] = target: T12, CAAX prenyl protease 2 (Saccharomyces cerevisiae S288c, UniProt Q03530); type: biochemical
T12 sequence (Q03530 whole entry): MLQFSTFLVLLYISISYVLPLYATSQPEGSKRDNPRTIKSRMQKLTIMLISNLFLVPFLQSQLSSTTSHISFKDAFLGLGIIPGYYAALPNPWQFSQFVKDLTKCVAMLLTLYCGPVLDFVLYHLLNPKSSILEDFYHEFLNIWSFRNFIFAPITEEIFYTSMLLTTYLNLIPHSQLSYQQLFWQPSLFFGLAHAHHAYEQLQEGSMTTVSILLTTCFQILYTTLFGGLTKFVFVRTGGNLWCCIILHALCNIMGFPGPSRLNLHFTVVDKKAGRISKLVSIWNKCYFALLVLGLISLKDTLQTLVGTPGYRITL

[21] = target: Troponin, cardiac muscle (Homo sapiens, UniProt P19429+P45379+P63316); experiment: Fluorescence-based biochemical high throughput dose response assay for activators of the calcium sensitivity of cardiac Regulated Thin Filaments (RTF). [Related pubchem assays (depositor defined):AID493008, AID493018, AID504382, AID504383]; type: protein-complex assay
[22] = target: T13, Tyrosine-protein phosphatase non-receptor type 22 (Homo sapiens, UniProt Q9Y2R2); type: functional
T13 sequence (Q9Y2R2 whole entry): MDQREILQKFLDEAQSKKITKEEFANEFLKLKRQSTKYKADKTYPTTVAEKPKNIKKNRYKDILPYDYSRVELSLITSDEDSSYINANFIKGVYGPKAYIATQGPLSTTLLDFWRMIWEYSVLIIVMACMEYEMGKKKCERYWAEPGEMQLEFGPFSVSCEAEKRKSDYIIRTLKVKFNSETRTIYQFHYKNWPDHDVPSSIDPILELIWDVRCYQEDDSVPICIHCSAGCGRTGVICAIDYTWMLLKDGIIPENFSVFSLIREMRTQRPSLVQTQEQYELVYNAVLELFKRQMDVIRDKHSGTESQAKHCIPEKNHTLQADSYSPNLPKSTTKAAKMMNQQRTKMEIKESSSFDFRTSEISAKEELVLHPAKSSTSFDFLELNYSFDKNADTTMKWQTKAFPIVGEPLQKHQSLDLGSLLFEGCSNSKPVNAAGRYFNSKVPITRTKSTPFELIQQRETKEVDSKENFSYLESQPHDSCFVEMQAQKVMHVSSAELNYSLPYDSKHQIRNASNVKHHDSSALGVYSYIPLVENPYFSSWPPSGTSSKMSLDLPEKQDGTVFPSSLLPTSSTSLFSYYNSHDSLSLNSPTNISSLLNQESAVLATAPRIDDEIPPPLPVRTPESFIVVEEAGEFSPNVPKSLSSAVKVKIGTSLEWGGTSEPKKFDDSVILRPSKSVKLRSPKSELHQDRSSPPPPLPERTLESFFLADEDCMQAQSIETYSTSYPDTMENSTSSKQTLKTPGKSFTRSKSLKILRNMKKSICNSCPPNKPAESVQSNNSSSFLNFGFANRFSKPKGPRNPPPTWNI

[23] = target: T13, Tyrosine-protein phosphatase non-receptor type 22; type: functional; remark: listed apart in the source
[24] = target: T3, Tyrosine-protein phosphatase non-receptor type 7; type: functional

C=CCOc1c(Br)cc(C2C3=C(CCCC3=O)N(C)C3=C2C(=O)CCC3)cc1OCC
IC50 [1]: 0.865 µM (active)
IC50 [2]: 41.2 µM (active)

O=C(Nc1nnc(-c2ccccc2)o1)c1nc2ccccc2s1
EC50 [3]: 7.07 µM (active)
IC50 [4]: 16.3 µM (active)

Cc1cccc(NC(=S)Nc2ccc(S(N)(=O)=O)cc2)c1
IC50 [5]: > 100 µM (inactive)

Cc1ccc(NC(=O)CN2C(=O)S/C(=C\c3cccn3-c3cccc(C(=O)O)c3)C2=O)cc1C
EC50 [6]: > 300 µM (not active)
IC50 [7]: 4.36 µM (active)
IC50 [8]: 6.14 µM (active)
EC50 [9]: > 300 µM (not active)
IC50 [10]: 17.2 µM (active)
IC50 [11]: 3.28 µM (active)

Cc1nc(N2CCN(C(=O)C3CC3)CC2)c2c3c(sc2n1)CC(C)CC3 (centres undefined)
IC50 [12]: 10.6 µM (inactive)
EC50 [13]: > 32 µM (inactive)
IC50 [14]: 17.9 µM (inactive)
IC50 [15]: > 32 µM (inactive)
IC50 [16]: > 32 µM (inactive)
EC50 [17]: > 32 µM (inactive)
EC50 [18]: > 32 µM (inactive)

COc1ccc(-c2cc(C(=O)N3CCN(c4ccccc4)CC3)c3ccccc3n2)cc1
AC50 [19]: 57.4 µM (active)
AC50 [20]: 4.71 µM (active)

COc1ccc(C(=O)Nn2cnc3scc(-c4cccs4)c3c2=O)c(O)c1
EC50 [21]: > 71.5 µM (inactive)

CCc1nc2cc([N+](=O)[O-])c([N+](=O)[O-])cc2[nH]1
IC50 [22]: > 79.4 µM (inactive)
IC50 [23]: > 79.4 µM (inactive)
IC50 [24]: > 79.4 µM (inactive)
